Values quoted from earlier work as cited in US20050272031A1, “Viral variants and uses therefor” (MELBOURNE HEALTH, priority 2000, published 2005).

System: HBV

Nc1ncnc2c1ncn2CCOCP(=O)(O)O [Adefovir]
anti-HBV activity in vitro: effective anti-HBV activity in vitro
